Activity calls are given as the source filed them.
Legend:
Protein Wnt-3a = Protein Wnt-3a (Mus musculus, UniProt P27467); assay: antagonism of Wnt3a pathway luciferase reporter – Wnt-LIGHT cells, luminescence, selectivity assay for Gli-SUFU antagonist project, dose response (AID 651570); assay type: functional; settings: read-out: IC50_Mean;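 note: Wnt-LIGHT reporter cells stimulated with conditioned medium from Wnt3a-producing cells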
[1] = Fluorescence-based cell-based high throughput dose response assay for inhibitors of the interaction of nucleotide-binding oligomerization domain containing 2 (NOD2) and the receptor-interacting serine-threonine kinase 2 (RIPK2).; assay type: functional, Homo sapiens
[2] = toxicity toward HepG2 liver cells – cell-based, plate reader, cherry-pick, antagonist series, cytotoxicity control, dose response (AID 743416); assay type: functional
[3] = blockade of melanocortin 4 receptor signaling – cell-based, plate reader, cherry pick, counter-screen for LGR2 antagonist project, dose response (AID 743444); assay type: functional;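 note: transfected HEK 293 cells stimulated with alpha-MSH peptide; potency of inhibitors of the alpha-MSH evoked signal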
[4] = blockers of bursicon-stimulated LGR2 cAMP reporter – cell-based, HEK293, CRE-luciferase reporter, cherry pick, set 2, dose response (AID 743343); assay type: functional;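 note: transfected cells were stimulated with diluted bursicon conditioned medium after compound addition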
[5] = viability loss in HEK293 cells – cell-based, plate reader, cherry-picked samples, cytotoxicity control, dose response (AID 743446); assay type: functional
[6] = A549 cell cytotoxicity, dose response, cytotoxicity control, plate reader, cherry-pick, antagonist series (AID 743412); assay type: functional, cell-based
[7] = intracellular Trypanosoma cruzi inhibitors in host cells – cell-based, plate reader, cherry-pick samples, set 3, dose response (AID 651818); assay type: functional;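 note: compounds incubated with infected cells for about four days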
Beta-lactamase [8] = molecular target: T1, Beta-lactamase (Pseudomonas aeruginosa, UniProt Q79MP6); assay: inhibition of IMP-1 beta-lactamase activity – biochemical, epi-absorbance, selectivity assay for VIM-2 inhibitor project, dose response (AID 1920)
Beta-lactamase [9] = molecular target: Beta-lactamase (Salmonella choleraesuis (strain SC-B67), UniProt Q5J463); assay: Epi-absorbance-based counterscreen for selective VIM-2 inhibitors: dose response biochemical high throughput screening assay to identify inhibitors of TEM-1 serine-beta-lactamase.
Beta-lactamase [10] = molecular target: T1, Beta-lactamase; assay: […] counterscreen for selective VIM-2 inhibitors: dose response biochemical high throughput screening assay to identify inhibitors of IMP-1 metallo-beta-lactamase.
Beta Lactamase [11] = molecular target: T2, Beta Lactamase (Pseudomonas aeruginosa, UniProt Q932Y6); assay: VIM-2 CCF2 hydrolysis inhibition, assay artifact filter – biochemical, FRET readout, CCF2 substrate, artefact control for selective VIM-2 inhibitor project, dose response (AID 1926)
Beta Lactamase [12] = molecular target: T2, Beta Lactamase; assay: concentration-dependent VIM-2 enzyme inhibition – biochemical, epi-absorbance readout, selective inhibitors, dose response (AID 1919)
[13] = molecular target: T3, Scavenger receptor class B member 1 (Mus musculus, UniProt Q61009); assay: blockers of DiI-HDL lipid transfer via SR-BI – cell-based, ldlA[mSR-BI] CHO, DiI fluorescence, dry powder, set 10, dose response (AID 624029); assay type: functional
T3 sequence (Q61009 whole entry): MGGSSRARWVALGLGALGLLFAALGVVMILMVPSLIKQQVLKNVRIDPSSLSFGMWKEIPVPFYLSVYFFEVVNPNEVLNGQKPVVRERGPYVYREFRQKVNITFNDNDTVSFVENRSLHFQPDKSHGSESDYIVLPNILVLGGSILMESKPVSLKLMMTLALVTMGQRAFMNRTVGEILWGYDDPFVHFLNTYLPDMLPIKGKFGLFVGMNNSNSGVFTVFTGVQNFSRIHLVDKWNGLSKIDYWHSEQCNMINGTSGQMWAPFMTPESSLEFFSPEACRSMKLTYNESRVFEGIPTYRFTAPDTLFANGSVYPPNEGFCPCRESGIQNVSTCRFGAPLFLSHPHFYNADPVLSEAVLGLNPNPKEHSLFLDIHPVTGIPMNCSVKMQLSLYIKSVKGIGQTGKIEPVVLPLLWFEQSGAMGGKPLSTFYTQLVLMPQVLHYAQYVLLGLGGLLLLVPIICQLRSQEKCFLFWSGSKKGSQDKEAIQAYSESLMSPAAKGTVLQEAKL

[14] = molecular target: T3, Scavenger receptor class B member 1; assay: mouse SR-BI DiI-HDL transfer blockers – ldlA[mSR-BI] CHO cells, fluorescence plate reader, dry powder, set 9, dose response (AID 623880); assay type: functional, cell-based
Vero = assay: viability loss in Vero cells – cell-based, plate reader, cherry-pick samples, cytotoxicity control, dose response (AID 687020); assay type: functional; settings: Chlorocebus sabaeus
[15] = molecular target: Protein disulfide-isomerase (Homo sapiens, UniProt P07237); assay: inhibition of PDI-driven insulin aggregation – biochemical, turbidity, absorbance, cherry-picked samples, dose response (AID 602350); assay type: functional
[16] = general mammalian cell viability loss – activator set, cherry-pick, cytotoxicity control for miR-122 modulator project, dose response (AID 720690); assay type: functional, cell-based;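 note: HEK293T human cells scored for general mammalian cytotoxicity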

T2 sequence (Q932Y6 whole entry): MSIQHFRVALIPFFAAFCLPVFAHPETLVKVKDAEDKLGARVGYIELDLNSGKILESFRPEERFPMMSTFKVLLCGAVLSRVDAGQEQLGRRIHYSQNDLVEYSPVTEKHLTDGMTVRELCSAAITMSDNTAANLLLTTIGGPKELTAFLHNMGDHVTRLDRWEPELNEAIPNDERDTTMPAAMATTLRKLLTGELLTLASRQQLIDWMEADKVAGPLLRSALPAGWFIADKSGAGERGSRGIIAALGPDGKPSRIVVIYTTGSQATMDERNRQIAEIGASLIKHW
T1 sequence (Q79MP6 whole entry): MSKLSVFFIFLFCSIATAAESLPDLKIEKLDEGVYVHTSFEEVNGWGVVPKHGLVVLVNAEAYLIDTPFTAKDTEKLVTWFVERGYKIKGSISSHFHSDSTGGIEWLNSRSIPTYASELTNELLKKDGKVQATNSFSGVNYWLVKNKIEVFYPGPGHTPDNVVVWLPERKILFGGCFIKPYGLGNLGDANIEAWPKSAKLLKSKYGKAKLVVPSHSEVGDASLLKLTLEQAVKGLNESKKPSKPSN
Sequence of Protein disulfide-isomerase (P07237 whole entry): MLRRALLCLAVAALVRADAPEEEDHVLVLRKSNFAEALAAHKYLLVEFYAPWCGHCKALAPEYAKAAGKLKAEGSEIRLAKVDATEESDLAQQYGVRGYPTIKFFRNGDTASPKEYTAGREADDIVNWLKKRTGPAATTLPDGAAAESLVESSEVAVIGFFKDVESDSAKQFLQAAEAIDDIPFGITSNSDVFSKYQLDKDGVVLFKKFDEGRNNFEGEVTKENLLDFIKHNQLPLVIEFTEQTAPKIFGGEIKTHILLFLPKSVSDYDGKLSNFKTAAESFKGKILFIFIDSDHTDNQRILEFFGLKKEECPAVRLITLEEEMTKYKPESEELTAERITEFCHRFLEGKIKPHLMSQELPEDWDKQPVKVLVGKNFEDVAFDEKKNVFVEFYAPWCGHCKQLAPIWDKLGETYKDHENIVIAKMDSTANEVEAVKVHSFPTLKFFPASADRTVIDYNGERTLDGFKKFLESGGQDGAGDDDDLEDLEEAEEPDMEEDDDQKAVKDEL
Sequence of Protein Wnt-3a (P27467 whole entry, the tested form may be a part): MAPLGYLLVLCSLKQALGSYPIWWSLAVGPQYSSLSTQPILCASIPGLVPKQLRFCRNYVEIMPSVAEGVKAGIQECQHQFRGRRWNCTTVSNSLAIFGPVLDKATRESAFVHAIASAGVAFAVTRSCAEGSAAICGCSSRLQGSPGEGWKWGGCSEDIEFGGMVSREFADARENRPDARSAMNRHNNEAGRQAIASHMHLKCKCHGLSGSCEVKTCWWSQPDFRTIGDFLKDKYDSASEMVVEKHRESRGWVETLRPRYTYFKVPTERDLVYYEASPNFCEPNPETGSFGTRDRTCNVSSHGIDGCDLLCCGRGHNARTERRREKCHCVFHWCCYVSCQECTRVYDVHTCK
Sequence of Beta-lactamase (Salmonella choleraesuis (strain SC-B67), UniProt Q5J463) (Q5J463 whole entry): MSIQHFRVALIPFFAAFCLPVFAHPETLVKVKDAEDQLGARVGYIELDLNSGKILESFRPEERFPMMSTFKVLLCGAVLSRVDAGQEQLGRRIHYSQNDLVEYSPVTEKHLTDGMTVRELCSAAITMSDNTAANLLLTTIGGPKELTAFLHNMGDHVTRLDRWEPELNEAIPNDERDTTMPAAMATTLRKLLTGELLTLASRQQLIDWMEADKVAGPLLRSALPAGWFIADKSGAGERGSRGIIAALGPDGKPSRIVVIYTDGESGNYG

Question: Which IC50 (Protein Wnt-3a) does the source give for `O=C(C[C@H]1C/C=C\C[C@@H](NC(=O)OCC2c3ccccc3-c3ccccc32)C(=O)O[C@@H](c2ccccc2)CNC1=O)N[C@H](CO)Cc1ccccc1` here?
Answer: 20.8 µM (inactive)

Question: With `CC1=CC2OC3CC4OC(=O)C=CC=CC(=O)OCCC(C)C(O)C(=O)OCC2(CC1O)C4(C)C31CO1` (centres undefined) as the compound, how does the IC50 [1] read?
Answer: 49.7 µM (inactive)

Question: Which AC50 [2] does the source give for `COc1ccc(CN(C)C[C@@H]2Oc3c(NC(=O)Nc4ccc(C(F)(F)F)cc4)cccc3C(=O)N([C@@H](C)CO)C[C@H]2C)cc1` here?
Answer: 7.95 µM (active)

Question: What about the AC50 [3] of the same compound?
Answer: 11 µM (active)

Question: What about the AC50 [4] of the same compound?
Answer: 16.6 µM (active)

Question: And the AC50 [5]?
Answer: 3.5 µM (active)

Question: What about the AC50 [6] of the same compound?
Answer: 13.6 µM (active)

Question: What about the AC50 [7] of the same compound?
Answer: 2.27 µM (active)

Question: Which IC50 (Beta-lactamase [8]) does the source give for `COc1cc(OC)c(OC)cc1/C=N/NC(=O)CC1C(=O)NN=C1C` (centres undefined) here?
Answer: > 59.6 µM (inactive)

Question: And the IC50 (Beta-lactamase [9])?
Answer: > 59.6 µM (inactive)

Question: And the IC50 (Beta-lactamase [10])?
Answer: > 59.6 µM (inactive)

Question: And the IC50 (Beta Lactamase [11])?
Answer: 1.46 µM (active)

Question: What about the IC50 (Beta Lactamase [12]) of the same compound?
Answer: 4.22 µM (active)

Question: Which results are given for `C[C@@H]1CN([C@H](C)CO)C(=O)c2cc(NC(=O)C3CCCCC3)ccc2O[C@H]1CN(C)C(=O)c1ccc(Cl)cc1`?
Answer: AC50 [13]: > 70 µM (inactive); AC50 [14]: 38.9 µM (active)

Question: With `Cc1cc(F)cc(-c2cc(C(=O)NCC3CCCCC3)[nH]n2)c1` as the compound, how does the AC50 (Vero) read?
Answer: 22.6 µM (active)

Question: Which AC50 [15] does the source give for `O=C(O)C1C(c2ccccc2)C(C(=O)Oc2ccc(O)cc2)C1c1ccccc1` (centres undefined) here?
Answer: 14.6 µM (active)

Question: Which AC50 [16] does the source give for `O=C(C1CCCCC1)N1C[C@@H]2[C@H](c3ccccc31)[C@H](CO)N2Cc1ccccc1Cl` here?
Answer: 27.1 µM (active)

Question: With `O=C1C[C@@H](c2ccc(O[C@@H]3O[C@H](CO)[C@@H](O)[C@H](O)[C@H]3O)cc2)Oc2cc(O)ccc21` [LIQUIRITIN] as the compound, how does the AC50 [15] read?
Answer: 15.6 µM (active)

Source: ChEMBL document CHEMBL1201862, “PubChem BioAssay data set” (2004)
